From patent publication US10174038B2, “Compounds and methods for antiviral treatment” (Gilead Sciences, Inc., priority 2012, dated 2019)

System: RSV strain A2
Assay: RSV antiviral activity, in vitro cytoprotection assay in Hep2 cells
Assay type: cell-based, Respiratory Syncytial Virus (RSV)
Conditions: human respiratory syncytial virus, HEp-2; 0.5 μM compound; RSV-induced cytopathic effect in Hep2 cells; % inhibition calculated from fitted 4-parameter dose response curve, normalized to 0% and 100%; read-out: Percent inhibition at 0.5 μM
Experimental: Antiviral activity against RSV was determined using an in vitro cytoprotection assay in Hep2 cells. […] The method used was similar to methods previously described in published literature (Chapman et al., Antimicrob Agents Chemother. 2007, 51(9):3346-53.)
Hep2 cells were obtained from ATCC (Manassas, Va.) and maintained in MEM media supplemented with 10% fetal bovine serum and penicillin/streptomycin. Cells were passaged twice a week and kept at subconfluent stage. Commercial stock of RSV strain A2 (Advanced Biotechnologies, Columbia, Md.) was titered before compound testing to determine the appropriate dilution of the virus stock that generated desirable cytopathic effect in Hep2 cells.
For antiviral tests, Hep2 cells were seeded into 96-well plates 24 hours before the assay at a density of 3,000 cells/well. On a separate 96 well plate, compounds to be tested were serially diluted in cell culture media. Eight concentrations in 3-fold serial dilution increments were prepared for each tested compound and 100 uL/well of each dilution was transferred in duplicate onto plates with seeded Hep2 cells. Subsequently, appropriate dilution of virus stock previously determined by titration was prepared in cell culture media and 100 uL/well was added to test plates containing cells and serially diluted compounds. Each plate included three wells of infected untreated cells and three wells of uninfected cells that served as 0% and 100% virus inhibition control, respectively. Following the infection with RSV, testing plates were incubated for 4 days in a tissue culture incubator. After the incubation, RSV-induced cytopathic effect was determined using a Cell TiterGlo reagent (Promega, Madison, Wis.) followed by a luminescence read-out. The percentage inhibition was calculated for each tested concentration relative to the 0% and 100% inhibition controls and the EC50 value for each compound was determined by non-linear regression as a concentration inhibiting the RSV-induced cytopathic effect by 50%. Ribavirin (purchased from Sigma, St. Louis, Mo.) was used as a positive control for antiviral activity.
Compounds were also tested for antiviral activity against RSV in Hep2 cells using a 384 well format. Compounds were diluted in DMSO using a 10-step serial dilution in 3-fold increments via automation in 4 adjacent replicates each. Eight compounds were tested per dilution plate. 0.4 uL of diluted compounds were then stamped via Biomek into 384-well plates (Nunc 142761 or 164730 w/lid 264616) containing 20 μL of media (Mediatech Inc. MEM supplemented with Glutamine, 10% FBS and Pen/Strep). DMSO and a suitable positive control compound, such as 80 μM GS-329467 or 10 μM 427346 was used for the 100% and 0% cell killing controls, respectively.
Hep2 cells (1.0×10^5 cells/ml) were prepared as above in batch to at least 40 mls excess of the number of sample plates (8 mls cell mix per plate) and infected with vendor supplied (ABI) RSV strain A2 to arrive at an MOI of 1:1000 (virus:cell #) or 1:3000 (vol virus:cell vol). Immediately after addition of virus, the RSV infected Hep2 cell suspension was added to each stamped 384-well plate at 20 μl per well using a uFlow dispenser, giving a final volume of 40 μL/well, each with 2000 infected cells. The plates were then incubated for 5 days at 37° C. and 5% CO2. Following incubation, the plates were equilibrated to room temperature in a biosafety cabinet hood for 1.5 hrs and 40 μL of Cell-Titer Glo viability reagent (Promega) was added to each well via uFlow. Following a 10-20 minute incubation, the plates were read using an EnVision or Victor Luminescence plate reader (Perkin-Elmer). The data was then uploaded and analyzed on the Bioinformatics portal under the RSV Cell Infectivity and 8-plate EC50-Hep2-384 or 8-plate EC50-Hep2-Envision protocols. […]

Row | SMILES | inhibition at 0.5 µM [%]
1 | CS(=O)(=O)Nc1ccc(Cl)cc1C(=O)N1CCCC[C@H]1c1cc2nc(C3CCCC3)cc(N3CCOCC3)n2n1 [Compound 57] | 93
2 | Cc1nc2cc([C@@H]3CCCCN3C(=O)c3cc(F)ccc3NS(C)(=O)=O)nn2c(C)c1C [Compound 58] | 89
3 | CN1CCN(c2cc(C3CC3)nc3cc([C@@H]4CCCCN4C(=O)c4cc(Cl)ccc4NS(C)(=O)=O)nn23)CC1 [Compound 59] | 92
4 | Cc1cc(N(C)CCO)nc2cc([C@@H]3CCCCN3C(=O)c3cc(Cl)ccc3NS(C)(=O)=O)nn12 [Compound 60] | 87
5 | Cc1cn2nc([C@@H]3CCCCN3C(=O)c3cc(Cl)ccc3NS(=O)(=O)N(C)C)cc2nc1N1CC[C@H](N)C1 [Compound 61] | 100
6 | Cc1cn2nc([C@@H]3CCCCN3C(=O)c3cc(Cl)ccc3NC(=O)c3ccccc3)cc2nc1N1CC[C@H](N)C1 [Compound 62] | 100
7 | Cc1cn2nc([C@@H]3CCCCN3C(=O)c3cc(Cl)ccc3NC(=O)OCC(F)(F)F)cc2nc1N1CC[C@H](N)C1 [Compound 63] | 100
8 | Cc1cn2nc([C@@H]3CCCCN3C(=O)c3cc(Cl)ccc3NC(=O)N(C)C)cc2nc1N1CC[C@H](N)C1 [Compound 64] | 100
9 | Cc1cn2nc([C@@H]3CCCCN3C(=O)c3cc(Cl)ccc3NC(=O)C(F)F)cc2nc1N1CC[C@H](N)C1 [Compound 65] | 100
10 | Cc1cc(C)nc(C(=O)N2CCCC[C@H]2c2cc3nc(N4CC[C@H](N)C4)c(C)cn3n2)c1 [Compound 66] | 100
11 | Cc1cn2nc([C@@H]3CCCCN3C(=O)c3cccc(C(F)(F)F)n3)cc2nc1N1CC[C@H](N)C1 [Compound 67] | 99
12 | CC(C)OC(=O)Nc1ccc(Cl)cc1C(=O)N1CCCC[C@H]1c1cc2nc(N3CCC3)cc(N3CCN(C(=O)OC(C)(C)C)CC3)n2n1 [Compound 68] | 100
13 | CC(C)OC(=O)Nc1ccc(Cl)cc1C(=O)N1CCCC[C@H]1c1cc2nc(N3CCC3)cc(N3CCNCC3)n2n1 [Compound 69] | 99
14 | CS(=O)(=O)Nc1ccc(Cl)cc1C(=O)N1CCCC[C@H]1c1cc2nc(N3CCC3)cc(N3CCCC(N)C3)n2n1 (stereo partly shown) [Compound 70] | 100
15 | CS(=O)(=O)Nc1ccc(Cl)cc1C(=O)N1CCCC[C@H]1c1cc2nc(N3CCC3)cc(N3CC[C@@H](N)C3)n2n1 [Compound 71] | 100
16 | CN(C)[C@@H]1CCN(c2cc(N3CCC3)nc3cc([C@@H]4CCCCN4C(=O)c4cc(Cl)ccc4NS(C)(=O)=O)nn23)C1 [Compound 72] | 100
17 | Cc1ccc(NS(C)(=O)=O)c(C(=O)N2CCCC[C@H]2c2cc3nc(C4CC4)c(C)cn3n2)c1 [Compound 73] | 100
18 | Cc1cc(C2CC2)nc2cc([C@@H]3CCCCN3C(=O)c3cc(F)cc(Cl)c3NS(C)(=O)=O)nn12 [Compound 74] | 97
19 | Cc1cc(C2CC2)nc2cc([C@@H]3CCCCN3C(=O)c3cc(F)ccc3NS(C)(=O)=O)nn12 [Compound 75] | 100
20 | Cc1ccc(C(=O)N2CCCC[C@H]2c2cc3nc(C4CC4)cc(C)n3n2)c(NS(C)(=O)=O)c1 [Compound 76] | 99
21 | Cc1cc(C2CC2)nc2cc([C@@H]3CCCCN3C(=O)c3cc(Cl)ccc3N)nn12 [Compound 77] | 94
22 | Cc1nc2cc([C@@H]3CCCCN3C(=O)c3cc(Cl)ccc3NS(C)(=O)=O)nn2c(N2CCC2)c1C [Compound 78] | 99
23 | Cc1ccc(NS(C)(=O)=O)c(C(=O)N2CCCC[C@H]2c2cc3nc(C)c(C)c(N4CCC4)n3n2)c1 [Compound 79] | 100
24 | CCc1ccc(NS(C)(=O)=O)c(C(=O)N2CCCC[C@H]2c2cc3nc(C4CC4)cc(N4CCOCC4)n3n2)c1 [Compound 80] | 99
25 | Cc1ccc(NS(C)(=O)=O)c(C(=O)N2CCCC[C@H]2c2cc3nc(C)c(C)cn3n2)c1 [Compound 81] | 100

Row | SMILES | inhibition at 0.5 µM [%]
26 | CC(=O)Nc1ccc(C)c(Br)c1C(=O)N1CCCC[C@H]1c1cc2nc(C)c(C)c(C)n2n1 [Compound 83] | 100
27 | CN[C@@H]1CCN(c2cc(C)n3nc([C@@H]4CCCCN4C(=O)c4cc(Cl)ccc4NS(C)(=O)=O)cc3n2)C1 [Compound 84] | 95
28 | CS(=O)(=O)Nc1ccc(Cl)cc1C(=O)N1CCCC[C@H]1c1cc2nc(C3CC3)ccn2n1 [Compound 85] | 86
29 | CC(=O)Nc1ccc(C)cc1C(=O)N1CCCC[C@H]1c1cc2nc(N3CCC[C@H](N)C3)c(C)cn2n1 [Compound 86] | 84
30 | CC(=O)Nc1ccc(C)cc1C(=O)N1CCCC[C@H]1c1cc2nc(N3CC(NC(=O)OC(C)(C)C)C3)c(C)cn2n1 [Compound 87] | 89
31 | Cc1cn2nc([C@@H]3CCCCN3C(=O)c3cc(Cl)ccc3NS(C)(=O)=O)cc2nc1N1CCC[C@H](N)C1 [Compound 88] | 89
32 | CS(=O)(=O)Nc1ccc(Cl)cc1C(=O)N1CCCC[C@H]1c1cc2nc(N3CC(CO)C3)cc(N3CCOCC3)n2n1 [Compound 89] | 90
33 | CS(=O)(=O)Nc1ccc(Cl)cc1C(=O)N1CCCC[C@H]1c1cc2nc(N3CCCC3)cc(N3CCOCC3)n2n1 [Compound 90] | 100
34 | CNc1cc(N2CCOCC2)n2nc([C@@H]3CCCCN3C(=O)c3cc(Cl)ccc3NS(C)(=O)=O)cc2n1 [Compound 91] | 91
35 | CN(C)c1cc(N2CCOCC2)n2nc([C@@H]3CCCCN3C(=O)c3cc(Cl)ccc3NS(C)(=O)=O)cc2n1 [Compound 92] | 98
36 | CS(=O)(=O)Nc1ccc(Cl)cc1C(=O)N1CCCC[C@H]1c1cc2nc(N3CC[C@@H](F)C3)cc(N3CCOCC3)n2n1 [Compound 93] | 56
37 | CNC1CCN(c2cc(N3CCOCC3)n3nc([C@@H]4CCCCN4C(=O)c4cc(Cl)ccc4NS(C)(=O)=O)cc3n2)C1 (stereo partly shown) [Compound 94] | 89
38 | CS(=O)(=O)Nc1ccc(Cl)cc1C(=O)N1CCCC[C@H]1c1cc2nc(N3CC[C@@H](N)C3)cc(N3CCOCC3)n2n1 [Compound 95] | 99
39 | CS(=O)(=O)Nc1ccc(Cl)cc1C(=O)N1CCCC[C@H]1c1cc2nc(N3CC[C@H](O)C3)cc(N3CCOCC3)n2n1 [Compound 96] | 90
40 | Cc1cn2nc([C@@H]3CCCCN3C(=O)c3cc(Cl)ccc3NS(C)(=O)=O)cc2nc1N1CC(C#N)C1 [Compound 97] | 97
41 | Cc1cn2nc([C@@H]3CCCCN3C(=O)c3cc(Cl)ccc3NS(C)(=O)=O)cc2nc1N1CC(F)(F)C1 [Compound 98] | 100
42 | COC(=O)C1CCN1c1nc2cc([C@@H]3CCCCN3C(=O)c3cc(Cl)ccc3NS(C)(=O)=O)nn2cc1C (stereo partly shown) [Compound 99] | 100
43 | Cc1cn2nc([C@@H]3CCCCN3C(=O)C(NS(C)(=O)=O)c3ccccc3F)cc2nc1N1CC[C@H](N)C1 (stereo partly shown) [Compound 100] | 100
44 | Cc1cn2nc([C@@H]3CCCCN3C(=O)C(NS(C)(=O)=O)c3ccccc3)cc2nc1N1CC[C@H](N)C1 (stereo partly shown) [Compound 101] | 100
45 | COC(=O)N[C@H](C(=O)N1CCCC[C@H]1c1cc2nc(N3CC[C@H](N)C3)c(C)cn2n1)C1CC1 [Compound 102] | 99
46 | Cc1ccc(NS(C)(=O)=O)c(C(=O)N2CCCC[C@H]2c2cc3nc(C)nc(C)n3n2)c1 [Compound 103] | 27
47 | Cc1cc(C)n2cc([C@@H]3CCCCN3C(=O)c3cc(Cl)ccc3NS(C)(=O)=O)nc2c1 [Compound 104] | 3
48 | Cc1ccc(NS(C)(=O)=O)c(C(=O)N2CCCC[C@H]2c2cc3cc(C)cc(C)n3n2)c1 [Compound 105] | 96
49 | CS(=O)(=O)Nc1ccc(Cl)cc1C(=O)N1CCCC[C@H]1c1cn2nc(N3CCC3)ccc2n1 [Compound 106] | 100
